From patent US11000033B2, “Ketone or oxime compound, and herbicide” (NISSAN CHEMICAL CORPORATION, priority 2014, dated 2021)

Columns and labels:
Format in all cases: in vivo
rice plant = test: Test Example 5: effect on crop by foliage application, plastic box (symbol b); conditions: 320 g/ha, 3 weeks after application
In short: (§1)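 Foliage-application test plants come from spot sowing in sterilized diluvial soil under a soil layer of about 1.5 cm, grown at 25° C. to 30° C. in a greenhouse.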

Apera spica-venti = test: Test Example 4: herbicidal effect by soil treatment (symbol L); conditions: application herbicide amount 320 g/ha
In short: (§2)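 Seeds were sown in sterilized diluvial soil, covered with about 1.5 cm of soil, and the soil surface was sprayed with a water-diluted emulsion of the compound at a predetermined rate. Plants grew in a greenhouse at 25° C. to 30° C.; effects were scored visually 3 weeks after application.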

Abutilon theophrasti = test: Test Example 5: herbicidal effect by foliage application, plastic box (symbol M); conditions: 320 g/ha, 3 weeks after application
In short: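 Leaf-applied emulsion, water-diluted to a preset herbicide dose, on two-week-old seedlings raised in a 25° C. to 30° C. greenhouse; injury rated at 3 weeks using earlier criteria.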

wheat [1] = test: Test Example 4: effect on crop by soil treatment (symbol e); conditions: application herbicide amount 320 g/ha
In short: (§3)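 Diluvial soil (sterilized) in boxes; seeds placed spot-wise alongside weed species; ~1.5 cm covering soil. Greenhouse, 25–30° C.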

beet = test: Test Example 5: effect on crop by foliage application, plastic box (symbol f); conditions: 320 g/ha, 3 weeks after application
In short: as §1

Scirpus juncoides = test: Test Example 2: herbicidal activity, application during weed generation in submerged conditions (symbol B); conditions: Table 23; application herbicide amount 320 g/ha; grade 0-5 by criteria of Test Example 1
In short: (§4)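 Compound was applied as a water-diluted emulsion into the standing water of flooded pots (4 cm) once co-sown weeds reached one to two leaves. Greenhouse temperature was 25° C. to 30° C., soil was alluvial, and each species was rated visually after 3 weeks.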

Amaranthus retroflexus = test: Test Example 4: herbicidal effect by soil treatment (symbol N); conditions: application herbicide amount 320 g/ha
In short: as §2

soybean = test: Test Example 4: effect on crop by soil treatment (symbol d); conditions: application herbicide amount 320 g/ha
In short: as §3

rice = test: Test Example 4: effect on crop by soil treatment (symbol b); conditions: application herbicide amount 320 g/ha
In short: as §3

rapeseed [2] = test: Test Example 5: effect on crop by foliage application, plastic box (symbol g); conditions: 320 g/ha, 3 weeks after application
In short: as §1

wheat [3] = test: Test Example 5: effect on crop by foliage application, plastic box (symbol e); conditions: 320 g/ha, 3 weeks after application
In short: as §1

[4] = tested on: directly sowed rice plant; test: Test Example 3: effect on crop by foliage application, Wagner pot (symbol b); conditions: application herbicide amount 320 g/ha
In short: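 Plants are raised from seed in flooded paddy conditions: water stands 0.1–0.5 cm over alluvial soil, and the pot is kept in a greenhouse at 25–30 °C. Species sown are barnyardgrass (E. crus-galli var. crus-galli), Leptochloa chinensis, Cyperus difformis and rice.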

rapeseed [5] = test: Test Example 4: effect on crop by soil treatment (symbol g); conditions: application herbicide amount 320 g/ha
In short: as §3

Avena fatua = test: Test Example 4: herbicidal effect by soil treatment (symbol I); conditions: application herbicide amount 320 g/ha
In short: as §2

[6] = tested on: Echinochloa oryzacola Vasing.; test: Test Example 2: herbicidal activity, application during weed generation in submerged conditions (symbol A); conditions: Table 23; application herbicide amount 320 g/ha; grade 0-5 by criteria of Test Example 1
In short: as §4

Lolium multiflorum Lam. = test: Test Example 4: herbicidal effect by soil treatment (symbol K); conditions: application herbicide amount 320 g/ha
In short: as §2

Structure (SMILES)	L: Apera spica-venti, herbicidal effect grade (Apera spica-venti)	e: wheat, effect on crop grade (wheat [1])	Herbicidal effect grade, B: Scirpus juncoides (Scirpus juncoides)	N: Amaranthus retroflexus, herbicidal effect grade (Amaranthus retroflexus)	d: soybean, effect on crop grade (soybean)	b: directly sowed rice plant, effect on crop grade (rice)	effect on crop b (directly sowed rice plant), grade 0-5 [4]	g: rapeseed, effect on crop grade (rapeseed [5])	I: Avena fatua, herbicidal effect grade (Avena fatua)	Herbicidal effect grade, A: Echinochloa oryzacola Vasing. [6]	K: Lolium multiflorum Lam., herbicidal effect grade (Lolium multiflorum Lam.)	b: directly sowed rice plant, effect on crop (criteria of Test Example 1) (rice plant)	M: Abutilon theophrasti, herbicidal effect (criteria of Test Example 1) (Abutilon theophrasti)	f: beet, effect on crop (criteria of Test Example 1) (beet)	g: rapeseed, effect on crop (criteria of Test Example 1) (rapeseed [2])	e: wheat, effect on crop (criteria of Test Example 1) (wheat [3])	other results
CON=C(C)CC1CC(O)=C(c2c(C)cc(Oc3ccccc3)cc2C)C1=O (centres unmarked) [6-052]	5 (Herbicidal ratio of 90% or more (almost completely withered))	0 (Herbicidal ratio of 5% or lower (almost no effect))	0 (Herbicidal ratio of 5% or lower (almost no effect))	0 (Herbicidal ratio of 5% or lower (almost no effect))	0 (Herbicidal ratio of 5% or lower (almost no effect))	1 (Herbicidal ratio of 5% or higher and lower than 20%)	5 (Herbicidal ratio of 90% or more (almost completely withered))	3 (Herbicidal ratio of 40% or higher and lower than 70%)	0 (Herbicidal ratio of 5% or lower (almost no effect))	3 (Herbicidal ratio of 40% or higher and lower than 70%)	0 (Herbicidal ratio of 5% or lower (almost no effect))						b: directly sowed rice plant, effect on crop grade (rice plant): 5 (Herbicidal ratio of 90% or more (almost completely withered)); M: Abutilon theophrasti, herbicidal effect grade (Abutilon theophrasti): 0 (Herbicidal ratio of 5% or lower (almost no effect)); f: beet, effect on crop grade (beet): 0 (Herbicidal ratio of 5% or lower (almost no effect)); g: rapeseed, effect on crop grade (rapeseed [2]): 3 (Herbicidal ratio of 40% or higher and lower than 70%); e: wheat, effect on crop grade (wheat [3]): 0 (Herbicidal ratio of 5% or lower (almost no effect))
CON=C(C)CC1CC(O)=C(c2c(C)cc(OC)cc2C)C1=O (centres unmarked) [6-055]	5 (Herbicidal ratio of 90% or more (almost completely withered))	0 (Herbicidal ratio of 5% or lower (almost no effect))	2 (Herbicidal ratio of 20% or higher and lower than 40%)	0 (Herbicidal ratio of 5% or lower (almost no effect))	0 (Herbicidal ratio of 5% or lower (almost no effect))	5 (Herbicidal ratio of 90% or more (almost completely withered))	5 (Herbicidal ratio of 90% or more (almost completely withered))	0 (Herbicidal ratio of 5% or lower (almost no effect))	0 (Herbicidal ratio of 5% or lower (almost no effect))	5 (Herbicidal ratio of 90% or more (almost completely withered))	5 (Herbicidal ratio of 90% or more (almost completely withered))	5 (Herbicidal ratio of 90% or more (almost completely withered))	1 (Herbicidal ratio of 5% or higher and lower than 20%)	0 (Herbicidal ratio of 5% or lower (almost no effect))	5 (Herbicidal ratio of 90% or more (almost completely withered))	3 (Herbicidal ratio of 40% or higher and lower than 70%)	
CON=C(C)CC1CC(O)=C(c2c(C)cc(C(C)=NOC)cc2C)C1=O (centres unmarked) [6-065]	5 (Herbicidal ratio of 90% or more (almost completely withered))	5 (Herbicidal ratio of 90% or more (almost completely withered))	1 (Herbicidal ratio of 5% or higher and lower than 20%)	4 (Herbicidal ratio of 70% or higher and lower than 90%)	0 (Herbicidal ratio of 5% or lower (almost no effect))	5 (Herbicidal ratio of 90% or more (almost completely withered))	5 (Herbicidal ratio of 90% or more (almost completely withered))	3 (Herbicidal ratio of 40% or higher and lower than 70%)	4 (Herbicidal ratio of 70% or higher and lower than 90%)	5 (Herbicidal ratio of 90% or more (almost completely withered))	5 (Herbicidal ratio of 90% or more (almost completely withered))	5 (Herbicidal ratio of 90% or more (almost completely withered))	2 (Herbicidal ratio of 20% or higher and lower than 40%)	3 (Herbicidal ratio of 40% or higher and lower than 70%)	4 (Herbicidal ratio of 70% or higher and lower than 90%)	5 (Herbicidal ratio of 90% or more (almost completely withered))	
CON=C(C)CC1CC(O)=C(c2c(C)cc(-n3cccn3)cc2C)C1=O (centres unmarked) [6-073]	0 (Herbicidal ratio of 5% or lower (almost no effect))	2 (Herbicidal ratio of 20% or higher and lower than 40%)	2 (Herbicidal ratio of 20% or higher and lower than 40%)	0 (Herbicidal ratio of 5% or lower (almost no effect))	0 (Herbicidal ratio of 5% or lower (almost no effect))	5 (Herbicidal ratio of 90% or more (almost completely withered))	5 (Herbicidal ratio of 90% or more (almost completely withered))	3 (Herbicidal ratio of 40% or higher and lower than 70%)	3 (Herbicidal ratio of 40% or higher and lower than 70%)	4 (Herbicidal ratio of 70% or higher and lower than 90%)	5 (Herbicidal ratio of 90% or more (almost completely withered))	5 (Herbicidal ratio of 90% or more (almost completely withered))	0 (Herbicidal ratio of 5% or lower (almost no effect))	0 (Herbicidal ratio of 5% or lower (almost no effect))	4 (Herbicidal ratio of 70% or higher and lower than 90%)	3 (Herbicidal ratio of 40% or higher and lower than 70%)	
CON=C(C)CC1CC(O)=C(c2c(C)cc(-n3cncn3)cc2C)C1=O (centres unmarked) [6-074]	0 (Herbicidal ratio of 5% or lower (almost no effect))	0 (Herbicidal ratio of 5% or lower (almost no effect))	0 (Herbicidal ratio of 5% or lower (almost no effect))	0 (Herbicidal ratio of 5% or lower (almost no effect))	0 (Herbicidal ratio of 5% or lower (almost no effect))	3 (Herbicidal ratio of 40% or higher and lower than 70%)	1 (Herbicidal ratio of 5% or higher and lower than 20%)	0 (Herbicidal ratio of 5% or lower (almost no effect))	0 (Herbicidal ratio of 5% or lower (almost no effect))	1 (Herbicidal ratio of 5% or higher and lower than 20%)	0 (Herbicidal ratio of 5% or lower (almost no effect))	2 (Herbicidal ratio of 20% or higher and lower than 40%)	0 (Herbicidal ratio of 5% or lower (almost no effect))	0 (Herbicidal ratio of 5% or lower (almost no effect))	0 (Herbicidal ratio of 5% or lower (almost no effect))	0 (Herbicidal ratio of 5% or lower (almost no effect))	
